From patent publication US5070191A, “Demethylallosamidin and a process for production thereof” (Ajinomoto Co., Inc., priority 1989, dated 1991)

Key:
[1] = biological target: T1, fungi-derived chitinase (chitinase solution from baker's yeast) (Saccharomyces cerevisiae, UniProt P29029); experiment: Determination of chitinase inhibitory activity (3H-chitin hydrolysis); format: biochemical; conditions: for Inhibition Rate (%): 37° C., 3 hours, pH 3.0
T1 construct: The cells were removed by centrifugation (0° C., 10 mins., 12,000 g); The resulting supernatant was concentrated to 200 ml by ultrafiltration; host or cells: baker's yeast; concentrated, acid-treated supernatant of shaken cells
T1 sequence (P29029 21-562): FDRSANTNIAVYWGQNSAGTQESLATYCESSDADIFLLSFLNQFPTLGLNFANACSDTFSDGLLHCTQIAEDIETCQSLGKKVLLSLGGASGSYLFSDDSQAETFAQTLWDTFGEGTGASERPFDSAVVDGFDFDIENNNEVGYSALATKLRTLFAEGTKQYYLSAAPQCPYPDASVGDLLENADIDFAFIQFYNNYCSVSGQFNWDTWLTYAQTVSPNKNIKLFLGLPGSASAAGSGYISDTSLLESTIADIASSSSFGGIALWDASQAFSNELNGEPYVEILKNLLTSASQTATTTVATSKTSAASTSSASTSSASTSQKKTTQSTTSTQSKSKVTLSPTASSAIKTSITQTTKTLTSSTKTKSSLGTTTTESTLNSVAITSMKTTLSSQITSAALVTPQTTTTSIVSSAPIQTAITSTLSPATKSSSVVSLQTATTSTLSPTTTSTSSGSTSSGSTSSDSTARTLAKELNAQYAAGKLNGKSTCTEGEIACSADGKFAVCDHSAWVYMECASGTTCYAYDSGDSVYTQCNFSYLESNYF
Protocol: A Sakaguchi flask of 2 liters was charged with 1 liter of 25 mM MES (Nakarai Chemical Co., Ltd.) buffer containing 0.1% β-mercaptoethanoland 200 g of baker's yeast (Kanegafuchi Chemical Industry Co., Ltd.) followed by shaking at 30° C. at 120 spm for 2 hours. The cells were removed by centrifugation (0° C., 10 mins., 12,000 g). The resulting supernatant was concentrated to 200 ml by ultrafiltration (TOYO ULTRAFILTER UP-20). After concentration, 400 ml of citrate buffer (0.15 M citric acid+0.15 M sodium citrate, pH 3.0) was added to the concentrate. After the formed precipitates were removed by centrifugation (0° C., 10 mins., 12,000 g), the resulting supernatant was concentrated to 40 ml by ultrafiltration. The concentrate was stored at 4° C. and used as the chitinase solution in the assay.
10 ml of 10% acetic acid was slowly added to 0.5 g of chitosan (PFANSTIEHL LABORATORIES INC.), then the mixture was kneaded in a mortar to become gel-like. After standing at room temperature overnight, 45 ml of methanol was added while thoroughly stirring. The mixture was filtered through a gauze and 0.75 ml of ^3 H-labeled acetic anhydride (NET 018A10 ACETIC ANHYDRIDE 5 mCi) was added to the filtrate obtained. The formed agar-like chitin was homogenized with a homogenizer, collected on a glass filter (Whatmann GF/B) and suspended in 10 ml of citrate buffer (pH 3.0). This chitin suspension (2.3 μCi/ml chitin suspension) was used as a substrate for assay.
In an Epfendorf tube, 90 μl of the chitinase solution and 10 μl of the ^3 H-chitin suspension were charged and reacted at 37° C. for 3 hours. In this case, 90 μl of citrate buffer (pH 3.0) was used in place of 90 μl of the enzyme solution as a control sample and reacted in a similar manner. After the reaction, 100 μl of 10% trichloroacetic acid was added and the reaction solution was passed through a glass filter (Whatmann GF/B). After 10 ml of scintillant solution was added to the obtained filtrate, its radioactivity (dpm) was determined. The difference between the determined value and the control sample indicated chitinase activity. The scintillant solution was prepared by dissolving 4 g of Ominiflour (Daiichi Chemical) in 500 ml of toluene and adding 500 ml of Triton X-100 (Nakarai Chemical Co., Ltd.) to the solution.
When allosamidin and demethylallosamidin were added, both were dissolved in 0.1 N acetic acid solution and 10 μl each of the solutions having the respective concentrations was added to the reaction system described above. Also, 10 μl of 0.1 N acetic acid was added to the blank and to the system in which no inhibitor was added, followed by the reaction described above.
The inhibitory activity was calculated according to the equation below: [formula] wherein: A=chitinase activity (dpm) when no inhibitor was added.
B=chitinase activity (dmp) when the inhibitor was added.
In any of the measurements, three series of runs were used and a mean value was determined.

[2] = system: Mouse ascitic mammary cancer cells FM3A; experiment: Cytotoxicity, mouse ascitic mammary cancer cells FM3A; format: cell-based; conditions: 1 mg/ml, 37° C., 4 days
Protocol: (i) Mouse ascitic mammary cancer cells FM3A were inoculated in 1×10^5 /ml on Dulbecco modified MEM medium supplemented with 10% fetal calf serum and demethylallosamidin was added thereto in a concentration of 1 mg/ml followed by stationary culture at 37° C. for 4 days.

[3] = system: Fusarium nivale ATCC 42308; experiment: Influence on growth of mold (length and branching degree of hyphae); format: cell-based; design: Length Hypha: unit not given here; conditions: after 32 hours; for Branching Degree of Hypha (mean value of branch intervals of hyphae) / Length Hypha: 28° C.
Protocol: Demethylallosamidin was added to the culture medium of mold to examine its influence. Firstly, Fusarium nivale ATCC 42308 was precultured in PDA medium (manufactured by Nissui Pharmaceutical Co., Ltd.) to form spores. The spores were suspended in physiological saline. The suspension was filtered through cotton to give a spore suspension free of hyphae. A fixed amount of the resulting suspension was inoculated on a medium supplemented with demethylallosamidin (0.80 μg/ml, 0.16 μg/ml) and on demethylallosamidin-free medium (control), respectively. […] The observation was performed as follows: sampling was made over definite periods of time, microscopic photographs were taken and the length and branching degree of hyphae were determined. The branching degree of hyphae is a mean value of branch intervals of hyphae. In any case, incubation was carried out at 28° C. at 120 strokes/min by charging 1 ml each of medium (0.03% of yeast extract, 0.03% of malt extract; both manufactured by Daigo Nutrient Co., Ltd.) and 0.1% of glucose in a testing tube with a cotton stopper (diameter of 11 mm).

[4] = system: Human leukemia cells K562; experiment: Cytotoxicity, human leukemia cells K562; format: cell-based; conditions: 1 mg/ml, 37° C., 4 days
Protocol: (ii) Human leukemia cells K562 were inoculated in 1×10^5 /ml on FRMI 1640 medium supplemented with 10% fetal calf serum and demethylallosamidin was added thereto in a concentration of 1 mg/ml followed by stationary culture at 37° C. for 4 days.

[5] = biological target: T1, fungi-derived chitinase (chitinase solution from baker's yeast); conditions: background statement; cited from earlier work
[6] = system: endo-type chitinase derived from insects; conditions: background statement; cited from earlier work
[7] = addition of demethylallosamidin

Structure (SMILES): CNC1=NC2C(O)C(OC3OC(CO)C(OC4OC(CO)C(O)C(O)C4NC(C)=O)C(O)C3NC(C)=O)C(CO)C2O1 (single isomer, unassigned) [Demethylallosamidin, demethylallosamidin]
- inhibitory activity against fungi-derived chitinase (in words) [1]: potent inhibitory activity
- Inhibition Rate (%) ([1]; amount added 0.05 μg): 61.1%
- Inhibition Rate (%) ([1]; amount added 0.1 μg): 73.9%
- Inhibition Rate (%) ([1]; amount added 0.2 μg): 75.2%
- Inhibition Rate (%) ([1]; amount added 0.4 μg): 84.6%
- Inhibition Rate (%) ([1]; amount added 0.8 μg): 87.1%
- inhibitory activity per unit weight relative to allosamidin ([1]; fungi-derived chitinase, versus allosamidin): ≤ 100 times
- growth inhibition (microscopic observation) [2]: no growth inhibition
- growth inhibition (microscopic observation) ([2]; listed as demethylallosamidin): no growth inhibition was noted at all
- Branching Degree of Hypha (mean value of branch intervals of hyphae) ([3]; 0.16 μg/ml): 72.8 μm
- Length Hypha ([3]; 0.16 μg/ml): 364
- Branching Degree of Hypha (mean value of branch intervals of hyphae) ([3]; 0.80 μg/ml): 74.2 μm
- Length Hypha ([3]; 0.80 μg/ml): 576
- branching degree of hyphae (in words) [3, 7]: decreased
- length of hyphae (in words) [3, 7]: obviously increased
- growth inhibition (microscopic observation) [4]: no growth inhibition
- growth inhibition (microscopic observation) ([4]; listed as demethylallosamidin): no growth inhibition was noted at all

Structure (SMILES): CC(=O)N[C@H]1[C@H](O[C@H]2[C@@H](O)[C@@H](NC(C)=O)[C@H](O[C@H]3[C@H](O)[C@H]4N=C(N(C)C)O[C@H]4[C@@H]3CO)O[C@@H]2CO)O[C@H](CO)[C@@H](O)[C@H]1O [Allosamidin, allosamidin]
- inhibitory activity against chitinase derived from fungi (in words, background) [5]: weakly inhibitory activity
- Inhibition Rate (%) ([1]; amount added 1 μg): 36.0%
- Inhibition Rate (%) ([1]; amount added 2 μg): 47.6%
- Inhibition Rate (%) ([1]; amount added 4 μg): 58.5%
- inhibition of endo-type chitinase derived from insects (in words) [6]: strongly inhibits
